≈ marks a conversion by molar mass, not a printed value. Peptide text beside a SMILES is read from it. * marks the point of attachment. NHPhenethyl = c1ccc(CCN*)cc1; NHBn = c1ccc(CN*)cc1

For orientation: half-life means the time needed for the level to fall by half in the phase considered.

One data set concerns the target trypsin (Bos taurus, UniProt P00760). The experiment in a line: in vitro. Conditions: bovine, isolated trypsin from bovine pancreas, pH 8.6.
For another data set, the system named is Str. pyogenes. The experiment in a line: Minimal inhibitory concentration. In kind it is cell-based. Here is the method: (§1) A further compound was prepared according to the methods of the invention and Minimal Inhibitory Concentration (MIC) values obtained against a range of bacteria. • H-Arg-Tbt-Arg-NH(CH2)2 (2-Br-phenyl) Saponification of Boc-Arg-Tbt-Arg-OMe
(§2) Minimal inhibitory concentration (mg/l),

For a further data set, the system named is E. coli. The experiment in a line: Minimal inhibitory concentration. The format is cell-based. Here is the method: as §1, §2
In another data set the test system is MRSA. The experiment in a line: Minimal inhibitory concentration. In kind it is cell-based. On the procedure: as §1, §2
Another data set has as its system S. aureus. Nature of the data set: Minimal inhibitory concentration. In kind it is cell-based. On the procedure:
as §1, §2

trypsin, sequence (P00760 24-246): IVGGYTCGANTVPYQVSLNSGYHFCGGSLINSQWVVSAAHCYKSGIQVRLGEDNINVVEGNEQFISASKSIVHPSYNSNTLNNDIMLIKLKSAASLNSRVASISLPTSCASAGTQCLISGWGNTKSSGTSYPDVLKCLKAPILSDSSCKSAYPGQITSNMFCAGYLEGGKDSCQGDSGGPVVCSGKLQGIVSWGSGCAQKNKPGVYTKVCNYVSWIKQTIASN
Method for trypsin: Essentially salt-free trypsin from bovine pancreas, (T8802, 10000-15000 BAEE units/mg protein) was supplied by Sigma-Aldrich.
Each peptide was dissolved in a 0.1 M NH4HCO3 buffer (pH 6.5) to yield a final peptide concentration of 1 mg/ml. A trypsin solution was prepared by dissolving 1 mg of trypsin in 50 ml 0.1 M NH4HCO3 buffer (pH 8.2). For the stability determination, 250 μl freshly made trypsin solution and 250 μl peptide solution were incubated in 2 ml of 0.1 M NH4HCO3 buffer (pH 8.6) at 37° C. on a rocking table. Aliquots of 0.5 ml were sampled at different time intervals, diluted with 0.5 ml water:acetonitrile (60:40 v/v) containing 1% TFA and analysed by RP-HPLC as described above. Samples without trypsin addition taken at 0 h and after 20 h at 37° C. were used as negative controls. […] The plotted kinetic profiles were made on GraphPad Prism 4c.
The identity of the metabolites from the tryptic degradation was either determined by preparative trypsin degradation of the peptide, purification and structural determination by ESMS, or by chemical synthesis of authentic reference samples.

Regarding `N=C(N)NCCC[C@H](NC(=O)[C@H](Cc1c[nH]c2ccccc12)NC(=O)[C@@H](N)CCCNC(=N)N)C(=O)NCc1ccccc1` [E] (H-Arg-Trp-Arg-NHBn), the half-life at 0.1 mg/ml on trypsin is 1 h.

For `N=C(N)NCCC[C@H](NC(=O)[C@H](Cc1c[nH]c2ccccc12)NC(=O)[C@@H](N)CCCNC(=N)N)C(=O)NCCc1ccccc1` [F] (H-Arg-Trp-Arg-NHPhenethyl), at trypsin, the half-life at 0.1 mg/ml was 7 h.

Regarding `CC(C)(C)c1cc(C(C)(C)C)c2[nH]c(C(C)(C)C)c(C[C@H](NC(=O)[C@@H](N)CCCNC(=N)N)C(=O)N[C@@H](CCCNC(=N)N)C(=O)NCCc3ccccc3Br)c2c1` [—(CH2)2-(2-BrPh), H-Arg-Tbt-Arg-NH(CH2)2 (2-Br-phenyl)], the Minimal inhibitory concentration in the data set with Str. pyogenes stood at 3 µg/mL (≈ 3.46 µM); in the data set with E. coli, 6 µg/mL (≈ 6.92 µM); in the data set with MRSA, 3 µg/mL (≈ 3.46 µM); in the data set on S. aureus, 3 µg/mL (≈ 3.46 µM).
